Laboratory results as given in paper PMC11079024, “Identification of a family of species-selective complex I inhibitors as potential anthelmintics” (Nature Communications, 2024).
Several values for one entry are separate records, joined by “and”; a condition that tells them apart may be missing. Equal entries are not always repeated. Where two headings read alike, the source gives them in different places.

Legend:
L1 wild-type C. elegans = details: for LC50: caenorhabditis elegans
C. elegans = C. elegans chemical screens of RIKEN NPD libraries at 50 μM (hit identification in KCN survival and development/viability assays); format: cell-based, Caenorhabditis elegans; details: screened at 50 μM in triplicate; hit = modified z-score < −3; KCN = KCN survival assay, Dev. & Viability = development/viability assay
[1] = test system: C. elegans complex IV (cytochrome C oxidase); assay: In vitro complex IV activity assay, C. elegans mitochondria; format: biochemical, Caenorhabditis elegans; details: for % Activity Complex IV: 100 µM compound, relative to solvent control, mean (SEM); for Percent in vitro activity, Complex IV (single replicate Rep1-Rep4) / Percent in vitro activity, Complex IV (Mean): 100 μM of NPD compound, C. elegans mitochondria; for Percent in vitro activity, Complex IV (single replicate Rep1-Rep4): individual biological replicates; for Percent in vitro activity, Complex IV (Mean): mean of four biological replicates
Method: (§1) Mitochondria were isolated from the following free-living nematode strains: C. elegans—N2, CB3474, ECA882, ECA917, ECA1075, ECA1080; C. briggsae—AF16; P. pacificus—PS312; and P. hermaphrodita—B178. With the exception of the P. hermaphrodita strain B178, adult worms of each strain were grown in bulk through liquid culture to obtain mitochondria in sufficient quantities. Due to poor growth in liquid media, mixed stage populations of P. hermaphrodita were washed off and collected from NGM plates seeded with OP50. The isolation of mitochondria from all free-living nematode strains followed the protocol previously outlined in Burns et al.[24]. In brief, a 1 L saturated culture of E. coli HB101 was concentrated 20-fold in 50 mL complete S-medium. ~500,000 L1 worms synchronized from an embryo preparation performed the day prior were added to the S-media/HB101 suspension and grown to adulthood over the course of 3.5 days at 20 °C with shaking at 165 rpm. Following growth, worms were collected in 10 ×15 mL conical tubes and washed 7 times in M9 buffer. Worm suspensions were then combined into a single 15 mL conical tube and diluted to a final volume of 15 mL with M9 buffer. 1 mL aliquots of worm suspension were then distributed to 15 × 1.5 mL screw-cap microcentrifuge tubes and were pelleted at 500 g for 1 min. Excess M9 was aspirated without disturbing the worm pellet. 600 μL ice-cold isolate buffer A (250 mM sucrose, 10 mM Tris (pH 7.5), 1 mM EDTA, 1 mM PMSF (freshly prepared)) and 300 μL cold glass beads were then added to each tube. Tubes were incubated on ice for 10 min, and the worms were then lysed by bead beating (6 x 30 s, with 1 min cooling intervals). Tubes containing worm lysate were centrifuged at 1,000 g for 10 min at 4 °C and the supernatant was transferred to 15 new microcentrifuge tubes on ice. The tubes were centrifuged a second time at 1,000 g for 10 min at 4 °C and the supernatant was once again transferred to 15 new microcentrifuge tubes on ice. These tubes were then centrifuged at 16,000 g for 10 min at 4 °C. The resulting mitochondrial pellet was washed twice by re-suspension in 300 μL of ice-cold isolate buffer B (250 mM sucrose, 10 mM Tris (pH 7.5), 1 mM EDTA). Following the final wash, isolation buffer was aspirated from each tube and the pellets were flash-frozen in ethanol/dry ice and stored at −80 °C until needed.
(§2) The enzymatic activities of individual ETC complexes (I-IV) were assessed spectrophotometrically in isolated mitochondria using a Varioskan LUX Multimode plate reader (ThermoFisher Scientific). Mitochondrial pellets previously isolated were thawed on ice and resuspended in ice-cold isolation buffer (250 mM sucrose, 10 mM Tris (pH 7.5), 1 mM EDTA). The BCA assay (Walker, 1994) was used to quantify the protein concentration of mitochondria suspensions; solutions were diluted to a concentration of 0.2 mg/mL for use in all assays. For the complex I assay, mitochondria pellets were freeze-thawed on ice three times to increase enzyme accessibility. […] 20 μL mitochondria suspension was then added/mixed with a pipette to initiate the reaction. Immediately following the addition of mitochondria, absorbance was measured (complex I and II: 600 nm; complex III and IV: 550 nm) in 30 s intervals over 15 min. Enzymatic activity was determined in each reaction by plotting absorbance versus time and calculating the slope of the curve during the initial linear phase of the reaction. […] Percent activity of each complex was calculated by dividing the enzyme-specific activity of each well by the enzyme-specific activity of the corresponding solvent controls.
Complex IV (cytochrome C oxidase) activity was determined by following the oxidation of CytC in the protocol outlined by Janssen and Boyle, 2019[60]. Reduced CytC was prepared fresh by adding 1 μL increments of 1 M dithiothreitol to a 1 mM solution of CytC and vortexing. A colour change from brown to orange/pink signals when CytC has been reduced.

[2] = test system: C. elegans complex III (decylubiquinol-cytochrome C reductase); assay: In vitro complex III activity assay, C. elegans mitochondria; format: biochemical, Caenorhabditis elegans; details: for % Activity Complex III: 100 µM compound, relative to solvent control, mean (SEM); for Percent in vitro activity, Complex III (single replicate Rep1-Rep4) / Percent in vitro activity, Complex III (Mean): 100 μM of NPD compound, C. elegans mitochondria; for Percent in vitro activity, Complex III (single replicate Rep1-Rep4): individual biological replicates; for Percent in vitro activity, Complex III (Mean): mean of four biological replicates
Method: as §1, §2
Antimycin A-sensitive complex III (decylubiquinol-cytochrome C […]) activity was determined by measuring the reduction of cytochrome C (CytC) as optimized in Luo et al.[59]. Decylubiquinol for complex III assays was prepared fresh as described in Janssen and Boyle, 2019[60].

HEK293 cells = details: for CC50: read-out: HEK293 Cell Viability Assay LC50, 2 days exposure; for HEK293 viability: individual replicate (Rep)
[3] = target: C. elegans (N2) complex I (NADH:ubiquinone oxidoreductase) (Caenorhabditis elegans, UniProt P24887+Q93873+Q94360); assay: biochemical; format: biochemical; details: for % Activity Complex I: 100 µM compound, relative to solvent control, mean (SEM); for Percent in vitro activity, Complex I (single replicate Rep1-Rep4) / Percent in vitro activity, Complex I (Mean): 100 μM of NPD compound, C. elegans mitochondria; for Percent in vitro activity, Complex I (single replicate Rep1-Rep4): individual biological replicates; for Percent in vitro activity, Complex I (Mean): mean of four biological replicates
Sequence of C. elegans (N2) complex I (NADH:ubiquinone oxidoreductase) (Q94360 17-199): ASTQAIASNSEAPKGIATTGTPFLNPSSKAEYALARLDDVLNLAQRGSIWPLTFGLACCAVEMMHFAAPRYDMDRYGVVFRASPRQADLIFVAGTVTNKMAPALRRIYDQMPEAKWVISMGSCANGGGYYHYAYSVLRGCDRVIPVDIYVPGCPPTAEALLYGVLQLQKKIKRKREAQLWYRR
Sequence of C. elegans (N2) complex I (NADH:ubiquinone oxidoreductase) (P24887 whole entry): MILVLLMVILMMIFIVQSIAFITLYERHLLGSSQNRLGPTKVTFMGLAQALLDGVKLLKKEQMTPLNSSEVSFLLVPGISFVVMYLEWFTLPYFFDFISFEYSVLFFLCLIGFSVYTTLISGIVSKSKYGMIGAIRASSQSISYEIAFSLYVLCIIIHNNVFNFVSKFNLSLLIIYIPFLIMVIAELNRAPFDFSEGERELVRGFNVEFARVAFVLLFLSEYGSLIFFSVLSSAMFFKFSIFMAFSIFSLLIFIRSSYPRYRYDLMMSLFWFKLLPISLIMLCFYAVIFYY
Sequence of C. elegans (N2) complex I (NADH:ubiquinone oxidoreductase) (Q93873 31-482): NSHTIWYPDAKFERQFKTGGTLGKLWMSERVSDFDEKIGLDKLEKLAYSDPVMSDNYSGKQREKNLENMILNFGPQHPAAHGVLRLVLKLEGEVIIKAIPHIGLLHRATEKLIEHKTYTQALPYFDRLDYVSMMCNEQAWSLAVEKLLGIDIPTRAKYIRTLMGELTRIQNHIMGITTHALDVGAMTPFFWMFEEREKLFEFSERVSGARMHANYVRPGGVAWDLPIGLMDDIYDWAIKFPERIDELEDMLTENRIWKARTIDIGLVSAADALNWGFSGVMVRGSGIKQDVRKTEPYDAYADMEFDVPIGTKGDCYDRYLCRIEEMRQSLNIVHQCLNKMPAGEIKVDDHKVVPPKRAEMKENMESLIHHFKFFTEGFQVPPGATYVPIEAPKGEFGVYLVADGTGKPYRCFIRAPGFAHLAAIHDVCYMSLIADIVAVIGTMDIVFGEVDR
Method in brief: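 Compounds were tested against freeze-thawed isolated mitochondria (0.2 mg/mL protein). NADH:decylubiquinone activity was monitored via DCIP absorbance at 600 nm, and the initial linear slope was normalised to solvent controls.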

[4] = target: C. elegans complex II (succinate dehydrogenase) (Caenorhabditis elegans, UniProt O62215+P41956+Q09545); assay: In vitro complex II activity assay, C. elegans mitochondria; format: biochemical; details: for % Activity Complex II: 100 µM compound, relative to solvent control, mean (SEM); for Percent in vitro activity, Complex II (single replicate Rep1-Rep4) / Percent in vitro activity, Complex II (Mean): 100 μM of NPD compound, C. elegans mitochondria; for Percent in vitro activity, Complex II (single replicate Rep1-Rep4): individual biological replicates; for Percent in vitro activity, Complex II (Mean): mean of four biological replicates
Sequence of C. elegans complex II (succinate dehydrogenase) (P41956 30-182): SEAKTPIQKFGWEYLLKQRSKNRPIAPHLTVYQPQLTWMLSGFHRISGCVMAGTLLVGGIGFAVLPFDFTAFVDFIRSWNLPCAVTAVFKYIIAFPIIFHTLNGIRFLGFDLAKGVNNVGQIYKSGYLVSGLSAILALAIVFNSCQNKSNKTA
Sequence of C. elegans complex II (succinate dehydrogenase) (Q09545 22-298): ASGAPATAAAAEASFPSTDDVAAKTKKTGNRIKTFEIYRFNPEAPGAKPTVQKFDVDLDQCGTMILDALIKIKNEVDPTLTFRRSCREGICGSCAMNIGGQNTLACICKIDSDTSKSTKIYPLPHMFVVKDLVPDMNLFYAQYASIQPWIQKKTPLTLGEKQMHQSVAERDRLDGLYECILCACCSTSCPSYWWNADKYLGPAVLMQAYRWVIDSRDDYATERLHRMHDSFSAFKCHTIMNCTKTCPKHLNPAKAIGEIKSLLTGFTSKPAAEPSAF
Sequence of C. elegans complex II (succinate dehydrogenase) (Q09508 32-646, further chain): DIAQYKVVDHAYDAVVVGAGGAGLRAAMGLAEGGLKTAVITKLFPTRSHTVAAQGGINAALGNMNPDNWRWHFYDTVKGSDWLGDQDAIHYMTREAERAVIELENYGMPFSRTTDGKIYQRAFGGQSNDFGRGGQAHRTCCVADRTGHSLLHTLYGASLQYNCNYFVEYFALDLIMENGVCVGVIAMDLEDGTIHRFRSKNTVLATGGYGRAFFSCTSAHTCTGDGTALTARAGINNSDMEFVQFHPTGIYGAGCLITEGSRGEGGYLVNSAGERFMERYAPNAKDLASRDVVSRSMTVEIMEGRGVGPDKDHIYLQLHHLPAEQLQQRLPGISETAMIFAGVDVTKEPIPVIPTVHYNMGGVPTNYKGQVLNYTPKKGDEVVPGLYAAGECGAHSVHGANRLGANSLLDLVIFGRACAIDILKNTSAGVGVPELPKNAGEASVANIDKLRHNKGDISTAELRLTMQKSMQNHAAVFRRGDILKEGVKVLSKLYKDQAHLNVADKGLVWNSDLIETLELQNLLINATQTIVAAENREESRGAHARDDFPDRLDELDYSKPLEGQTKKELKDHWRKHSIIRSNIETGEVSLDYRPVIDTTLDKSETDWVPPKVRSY
Sequence of C. elegans complex II (succinate dehydrogenase) (O62215 31-145): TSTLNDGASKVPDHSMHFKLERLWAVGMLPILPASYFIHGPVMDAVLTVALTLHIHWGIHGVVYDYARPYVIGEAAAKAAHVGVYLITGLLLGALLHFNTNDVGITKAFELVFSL
Method: as §1, §2
Complex II (succinate dehydrogenase) activity was assessed using the DCIP-coupled method previously described in Burns et al.[24].
For preliminary screens of hit compounds, compounds were screened at 100 μM; data are the average of at least three biological replicates. The complex I and II activity assays were used for additional dose-response experiments.

Row | Structure (SMILES) | LC50 (L1 wild-type C. elegans) [µM] | Hit Type (C. elegans) | % Activity Complex IV [1] | Percent in vitro activity, Complex IV (single replicate Rep1-Rep4) [1] | Percent in vitro activity, Complex IV (Mean) [1] [%] | % Activity Complex III [2] | Percent in vitro activity, Complex III (single replicate Rep1-Rep4) [2] | Percent in vitro activity, Complex III (Mean) [2] [%] | CC50 (HEK293 cells) [µM] | % Activity Complex I [3] | Percent in vitro activity, Complex I (single replicate Rep1-Rep4) [3] | Percent in vitro activity, Complex I (Mean) [3] [%] | % Activity Complex II [4] | Percent in vitro activity, Complex II (single replicate Rep1-Rep4) [4] | Percent in vitro activity, Complex II (Mean) [4] [%] | other results
1 | Cc1nc2ccc(Br)cc2c2c1CC(C(C)(Cl)Br)O2 (racemic) [NPD10211] | 14.5 | KCN/Dev. & Viability | – | – | – | – | – | – | – | – | – | – | – | – | – | –
2 | O=C(/C=C/c1ccccc1)/C=C/c1ccccc1 [FSL0005] | 0.93 | KCN | 92.29 (3.01) % | 87.534% and 94.293% and 79.459% and 107.854% | 92.285 | 103.92 (1.25) % | 104.719% and 106.444% and 107.817% and 96.693% | 103.918 | 7.48 | 91.90 (0.78) % | 93.303% and 89.704% and 95.600% and 88.991% | 91.900 | 80.91 (2.02) % | 88.395% and 79.227% and 70.277% and 85.744% | 80.911 | C. elegans L1 relative motility, 3-hour post 200 µM KCN dilution (L1 wild-type C. elegans): 0.000
3 | CCc1ccc(-c2cc(C(=O)Nc3nccs3)c3ccccc3n2)cc1 [STK418118] | – | Dev. & Viability | – | – | – | – | – | – | > 50 | – | – | – | – | – | – | –
4 | Cc1ccc(N=c2cc(-c3ccc4c(c3)OCO4)oc3ccccc23)cc1C [NPD601] | 13.6 | KCN | – | – | – | – | – | – | – | – | – | – | – | – | – | –
5 | COc1ccc(-c2cc(=Nc3ccccc3N)c3ccccc3o2)cc1 [NPD6380] | 14.3 | KCN | 115.38 (4.42) % | 108.559% and 111.425% and 100.551% and 140.996% | 115.383 | 107.06 (1.36) % | 109.305% and 109.700% and 110.292% and 98.948% | 107.062 | 29.2 | 86.43 (2.27) % | 77.779% and 82.402% and 98.876% and 86.642% | 86.425 | 102.27 (2.46) % | 113.834% and 92.410% and 96.068% and 106.772% | 102.271 | C. elegans L1 relative motility, 3-hour post 200 µM KCN dilution (L1 wild-type C. elegans; dose 0.4 µM, individual replicate (Rep)): 1.243 and 1.189; C. elegans L1 relative motility, 3-hour post 200 µM KCN dilution (L1 wild-type C. elegans; dose 0.8 µM, individual replicate (Rep)): 1.074 and 1.086; C. elegans L1 relative motility, 3-hour post 200 µM KCN dilution (L1 wild-type C. elegans; dose 3.1 µM, individual replicate (Rep)): 1.020 and 1.053; C. elegans L1 relative motility, 3-hour post 200 µM KCN dilution (L1 wild-type C. elegans; dose 6.3 µM, individual replicate (Rep)): 1.040 and 1.101; C. elegans L1 relative motility, 3-hour post 200 µM KCN dilution (L1 wild-type C. elegans; dose 12.5 µM, individual replicate (Rep)): 0.696 and 0.688; C. elegans L1 relative motility, 3-hour post 200 µM KCN dilution (L1 wild-type C. elegans; dose 25 µM, individual replicate (Rep)): 0.136 and 0.141; C. elegans L1 relative motility, 3-hour post 200 µM KCN dilution (L1 wild-type C. elegans; dose 50 µM, individual replicate (Rep)): 0.030 and 0.035; HEK293 viability (HEK293 cells; dose 0.8 µM): 0.998; HEK293 viability (HEK293 cells; dose 3.1 µM): 0.945 and 0.951; HEK293 viability (HEK293 cells; dose 6.3 µM): 0.687 and 0.797; HEK293 viability (HEK293 cells; dose 12.5 µM): 0.542 and 0.584; HEK293 viability (HEK293 cells; dose 25 µM): 0.441 and 0.466; HEK293 viability (HEK293 cells; dose 50 µM): 0.431 and 0.445
6 | COc1ccc(N=c2cc(-c3ccc(OC)c(OC)c3)oc3ccccc23)c(OC)c1 [NPD6383] | 22.2 | KCN | – | – | – | – | – | – | – | – | – | – | – | – | – | –
